Here are results for 18 compounds from patent US5733913A, “6-Aryl pyrido[2,3-d] pyrimidines and naphthyridines for inhibiting protein tyrosine kinase mediated cellular proliferation” (priority 1995, dated 1998).

What all share (type): biochemical
For one test, the system named is V-src kinase. Kind of test: V-src kinase assay. To be noted: at 50 μM. The method, then: (§1) V-src and C-src Kinase Assays
(§2) V-src or C-src kinase is purified from baculovirus infected insect cell lysates using an antipeptide monoclonal antibody directed against the N-terminal 2-17 amino acids. The antibody, covalently linked to 0.65-μm latex beads, is added to a suspension of insect cell lysis buffer comprised of 150 mM NaCl, 50 mM Tris pH 7.5, 1 mM DTT, 1% NP-40, 2 mM EGTA, 1 mM sodium vanadate, 1 mM PMSF, 1 μg/mL each of leupeptin, pepstatin, and aprotinin. Insect cell lysate containing either the c-src or v-src protein is incubated with these beads for 3-4 hours at 4° C. with rotation. At the end of the lysate incubation, the beads are rinsed 3 times in lysis buffer, resuspended in lysis buffer containing 10% glycerol, and frozen. These latex beads are thawed, rinsed three times in assay buffer which is comprised of 40 mM tris pH 7.5, 5 mM MgCl2, and suspended in the same buffer. In a Millipore 96-well plate with a 0.65 μm polyvinylidine membrane bottom are added the reaction components: 10-μL v-src or c-src beads, 10 μL of 2.5 mg/mL poly GluTyr substrate, 5 μM ATP containing 0.2 μCi labeled ^32 P-ATP, 5μL DMSO containing inhibitors or as a solvent control, and buffer to make the final volume 125 μL. The reaction is started at room temperature by addition of the ATP and quenched 10 minutes later by the addition of 125 μL of 30% TCA, 0.1M sodium pyrophosphate for 5 minutes on ice. The plate is then filtered and the wells washed with two 250-μL aliquots of 15% TCA, 0.1M pyrophosphate. The filters are punched, counted in a liquid scintillation counter, and the data examined for inhibitory activity in comparison to a known inhibitor such as erbstatin. The method is described more fully in J. Med. Chem., 37:598-609 (1994).

Test [1] deals with T1, human FGF-1 (flg) receptor tyrosine kinase (Homo sapiens, UniProt P11362).
T1 construct: a fragment of DNA that codes for the intracellular tyrosine kinase domain; made in house; host or cells: Sf9 insect cells (baculovirus), cell lysate
T1 sequence (P11362 478-767 limits assumed): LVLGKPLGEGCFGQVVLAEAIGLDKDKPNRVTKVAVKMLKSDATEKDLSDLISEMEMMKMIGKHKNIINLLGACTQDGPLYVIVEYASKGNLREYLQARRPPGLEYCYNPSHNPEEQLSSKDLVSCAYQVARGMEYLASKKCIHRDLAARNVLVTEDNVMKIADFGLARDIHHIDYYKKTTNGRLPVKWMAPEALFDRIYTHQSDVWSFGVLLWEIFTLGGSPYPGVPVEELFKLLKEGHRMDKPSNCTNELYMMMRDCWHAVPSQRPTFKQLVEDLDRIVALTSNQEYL
In words: FGF receptor tyrosine kinase assay. To be noted: read-out: Inhibition of Protein Tyrosine Kinases, FGF, IC50. An excerpt:
(§3) PDGF and FGF Receptor Tyrosine Kinase Assays
(§4) Full length cDNAs for the mouse PDGF-β and human FGF-1 (flg) receptor tyrosine kinases were obtained from J. Escobedo and prepared as described in J. Biol. Chem., 262:1482-1487 (1991), and PCR primers were designed to amplify a fragment of DNA that codes for the intracellular tyrosine kinase domain. The fragment was melded into a baculovirus vector, cotransfected with AcMNPV DNA, and the recombinant virus isolated. SF9 insect cells were infected with the virus to overexpress the protein, and the cell lysate was used for the assay. […] Briefly, to each well was added 82.5 μL of incubation buffer containing 25 mM Hepes (pH 7.0), 150 mM NaCl, 0.1% Triton X-100, 0.2 mM PMSF, 0.2 mM Na3 VO4, 10 mM MnCl2, and 750 μg/mL of Poly (4:1) glutamate-tyrosine followed by 2.5 μL of inhibitor and 5 μL of enzyme lysate (7.5 μg/μL FGF-TK or 6.0 μg/μL PDGF-TK) to initiate the reaction. Following a 10 minute incubation at 25° C., 10 μL of γ^32 P-ATP (0.4 μCi plus 50 μM ATP) was added to each well and samples were incubated for an additional 10 minutes at 25° C. The reaction was terminated by the addition of 100 μL of 30% trichloroacetic acid (TCA) containing 20 mM sodium pyrophosphate and precipitation of material onto glass fiber filter mats (Wallac). […] Nonspecific activity was defined as radioactivity retained on the filters following incubation of samples with buffer alone (no enzyme). Specific enzymatic activity was defined as total activity (enzyme plus buffer) minus nonspecific activity.

A further test deals with T2, C-src kinase (Homo sapiens, UniProt P12931).
T2 construct: made in house; host or cells: baculovirus-infected insect cells
T2 sequence (P12931 whole entry): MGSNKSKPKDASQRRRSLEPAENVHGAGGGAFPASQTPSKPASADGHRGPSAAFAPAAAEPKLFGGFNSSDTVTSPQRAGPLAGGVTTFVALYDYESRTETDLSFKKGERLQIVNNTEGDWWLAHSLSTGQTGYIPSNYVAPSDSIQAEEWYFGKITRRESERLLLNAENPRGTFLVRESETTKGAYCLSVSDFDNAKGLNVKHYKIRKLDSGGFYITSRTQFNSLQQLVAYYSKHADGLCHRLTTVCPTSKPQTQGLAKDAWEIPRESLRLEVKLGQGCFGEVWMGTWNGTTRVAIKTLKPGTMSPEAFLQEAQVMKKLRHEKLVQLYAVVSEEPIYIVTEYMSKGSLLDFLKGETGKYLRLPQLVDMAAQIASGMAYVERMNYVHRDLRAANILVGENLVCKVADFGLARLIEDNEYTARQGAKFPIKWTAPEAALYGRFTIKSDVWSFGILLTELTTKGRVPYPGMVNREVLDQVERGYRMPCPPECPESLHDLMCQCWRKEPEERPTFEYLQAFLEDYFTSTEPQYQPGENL
In words: C-src kinase assay. The note with it: for inhibition at 50 µM: read-out: Inhibition of Protein Tyrosine Kinases, C-src, % Inhibition; for IC50: read-out: Inhibition of Protein Tyrosine Kinases, C-src, IC50. As for the experimental part: as §1
as §2, with “Insect cell lysate containing either the c-src or v-src protein is incubated with these beads for 3-4 hours at 4° C. with rotation.” left out

Test [2] deals with T3, mouse PDGF-β receptor tyrosine kinase (Mus musculus, UniProt P05622).
T3 construct: a fragment of DNA that codes for the intracellular tyrosine kinase domain; made in house; host or cells: Sf9 insect cells (baculovirus), cell lysate
T3 sequence (P05622 599-961 limits assumed): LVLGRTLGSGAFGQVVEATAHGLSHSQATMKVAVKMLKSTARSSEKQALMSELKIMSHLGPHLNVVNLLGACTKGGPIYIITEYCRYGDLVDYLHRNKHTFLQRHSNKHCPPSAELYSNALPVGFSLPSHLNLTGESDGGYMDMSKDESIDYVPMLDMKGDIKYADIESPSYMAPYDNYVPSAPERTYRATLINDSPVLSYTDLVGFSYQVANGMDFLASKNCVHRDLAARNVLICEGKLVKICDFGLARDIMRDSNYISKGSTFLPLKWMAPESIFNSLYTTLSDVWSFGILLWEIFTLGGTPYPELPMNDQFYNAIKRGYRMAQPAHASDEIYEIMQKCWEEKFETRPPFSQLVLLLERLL
Kind of test: PDGF receptor tyrosine kinase assay. The note with it: for inhibition at 50 µM: read-out: Inhibition of Protein Tyrosine Kinases, PDGF, % Inhibition; for IC50: read-out: Inhibition of Protein Tyrosine Kinases, PDGF, IC50.
Description: as §3, §4

Each structure is given as a SMILES string. Like-named read-outs stand apart in the source and are kept apart here.

As a reminder, the IC50 is the concentration needed to halve the response being measured. As for `Nc1ncc2cc(-c3c(Cl)cccc3Cl)c(N)nc2n1` [Example 1, 2,7-Diamino-6-(2,6-dichlorophenyl)-pyrido[2,3-d]pyrimidine], the “Inhibition of Protein Tyrosine Kinases, V-src, % Inhibition” value (“Inhibition … % Inhibition” for short) in the test on V-src kinase is -2.4%. Moreover, the IC50 in test [1] turned out to be 2990 nM.

The inhibition is the percentage by which the read-out fell short of the control. Consider `CNc1nc2nc(N)ncc2cc1-c1ccc(OC)cc1` [Example 13, 6-(4-Methoxyphenyl)-N^7-methyl-pyrido[2,3-d]pyrimidine-2,7-diamine], for which the inhibition at 50 µM came to 15.9% at C-src kinase (at 50 μM) and 18.2% in test [2]. In addition, the “Inhibition … % Inhibition” value in the test on V-src kinase came out at 21.2%. Moreover, the IC50 in test [1] turned out to be 30300 nM.

Regarding `CCN(CC)CCCNc1ncc2cc(-c3c(Cl)cccc3Cl)c(N)nc2n1` [Example 20, 7-Amino-6-(2,6-dichlorophenyl)-2-(3-diethylamino-propylamino)-pyrido[2,3-d]pyrimidine], the half-maximal inhibitory concentration (IC50) on C-src kinase stood at 0.748 µM; in test [2], 46.1 µM; in test [1], 2380 nM. Besides, the “Inhibition … % Inhibition” value in the test on V-src kinase was found to be 51.7%.

Consider `Nc1ncc2cc(-c3ccccc3)c(N)nc2n1` [Example 81, 6-Phenyl-pyrido[2,3-d]pyrimidine-2,7-diamine], for which the inhibition at 50 µM at C-src kinase (at 50 μM) worked out at 67.5%. Further, the “Inhibition … % Inhibition” value with V-src kinase is -20.3%.

As to `Nc1ncc2cc(-c3cccc(Cl)c3Cl)c(N)nc2n1` [Example 83, 6-(2,3-Dichlorophenyl)-pyrido[2,3-d]pyrimidine-2,7-diamine], at C-src kinase (at 50 μM), the inhibition at 50 µM was determined as 53.6%. The results for the half-maximal inhibitory concentration (IC50) in test [2] and in test [1] were 42.5 µM and 1980 nM, respectively. Besides, the “Inhibition … % Inhibition” value in the test with V-src kinase is reported as -9.8%.

`Cc1cccc(-c2cc3cnc(N)nc3nc2N)c1C` [Example 92, 6-(2,3-Dimethyl-phenyl)-pyrido[2,3-d]pyrimidine-2,7-diamine]: the inhibition at 50 µM on C-src kinase (at 50 μM) is 44.5%; in test [2] it was 33.1%. The “Inhibition … % Inhibition” value in the test with V-src kinase is reported as -10.1%. Moreover, the IC50 in test [1] was determined as 2010 nM.

As to `Cc1cccc(-c2cc3cnc(N)nc3nc2NC(=O)NC(C)(C)C)c1C` [Example 93, 1-[2-Amino-6-(2,3-dimethyl-phenyl)-pyrido[2,3-d]pyrimidin-7-yl]-3-tert-butyl-urea], the IC50 at C-src kinase came to 4.17 µM; in test [2], 6.05 µM; in test [1], 343 nM.

As to `Cc1cc(C)cc(-c2cc3cnc(N)nc3nc2NC(=O)NC(C)(C)C)c1` [Example 95, 1-[2-Amino-6-(3,5-dimethyl-phenyl)-pyrido[2,3-d]pyrimidin-7-yl]-3-tert-butyl-urea], the inhibition at 50 µM on C-src kinase (at 50 μM) worked out at 0%. The values for the IC50 in test [2] and in test [1] were 41.6 µM and 605 nM, respectively.

Take `Cc1cc(C)c(-c2cc3cnc(N)nc3nc2NC(=O)NC(C)(C)C)c(C)c1` [Example 97, 1-[2-Amino-6-(2,4,6-trimethyl-phenyl)-pyrido[2,3-d]pyrimidin-7-yl]-3-tert-butyl-urea]: the inhibition at 50 µM at C-src kinase turned out to be 28.9%. For the same compound, the IC50 was determined as 1.73 µM in test [2] and 340 nM in test [1].

For `Cc1cc(C)c(C)c(-c2cc3cnc(N)nc3nc2N)c1C` [Example 98, 6-(2,3,5,6-Tetramethyl-phenyl)-pyrido[2,3-d]pyrimidine-2,7-diamine], the inhibition at 50 µM amounted to 0.5% at C-src kinase (at 50 μM) and 34.3% in test [2]. Also, the IC50 in test [1] was 1800 nM.

As to `COc1ccccc1-c1cc2cnc(N)nc2nc1NC(=O)NC(C)(C)C` [Example 101, 1-[2-Amino-6-(2-methoxy-phenyl)-pyrido[2,3-d]pyrimidin-7-yl]-3-tert-butyl-urea], the IC50 at C-src kinase was 19.3 µM; in test [2], 4.48 µM; in test [1] it was 11200 nM.

Regarding `COc1cccc(-c2cc3cnc(N)nc3nc2NC(=O)NC(C)(C)C)c1` [Example 103, 1-[2-Amino-6-(3-methoxy-phenyl)-pyrido[2,3-d]pyrimidin-7-yl]-3-tert-butyl-urea], the IC50 turned out to be 36.4 µM on C-src kinase, 19.6 µM in test [2] and 300 nM in test [1].

For `CC(C)(C)NC(=O)Nc1nc2nc(N)ncc2cc1-c1c(Cl)cccc1Br` [Example 105, 1-[2-Amino-6-(2-bromo-6-chloro-phenyl)-pyrido[2,3-d]pyrimidin-7-yl]-3-tert-butyl-urea], the IC50 on C-src kinase stood at 0.214 µM; in test [2], 0.618 µM; in test [1], 181 nM.

As for `CCCS(=O)(=O)Nc1nc2nc(N)ncc2cc1-c1c(Cl)cccc1Cl` [Example 106, Propane-1-sulfonic acid [2-amino-6-(2,6-dichlorophenyl)-pyrido[2,3-d]pyrimidin-7-yl]-amide], the IC50 at C-src kinase was found to be 0.236 µM; in test [2], 4.8 µM; in test [1], 361 nM.

Regarding `CC(C)(C)NC(=O)Nc1nc2nc(N)ncc2cc1-c1cccnc1` [Example 108, 1-(2-Amino-6-pyridin-3-yl-pyrido[2,3-d]pyrimidin-7-yl)-3-tert-butyl-urea], the IC50 at C-src kinase came to 5.66 µM; in test [2], 13.7 µM; in test [1], 4480 nM.

Regarding `CC(C)(C)NC(=O)Nc1nc2nc(N)ncc2cc1-c1ccncc1` [Example 110, 1-(2-Amino-6-pyridin-4-yl-pyrido[2,3-d]pyrimidin-7-yl)-3-tert-butyl-urea], the inhibition at 50 µM at C-src kinase (at 50 μM) was determined as 27.5%. For the same compound, the IC50 in test [2] was 11.5 µM; in test [1], 12800 nM.

As for `CN1CCN(CCCNc2ncc3cc(-c4c(Cl)cccc4Cl)c(NC(=O)NC45CC6CC(CC(C6)C4)C5)nc3n2)CC1` [Example 117, 1-Adamantan-1-yl-3-{6-(2,6-dichlorophenyl)-2-[3-(4-methyl-piperazin-1-yl)-propylamino]-pyrido[2,3-d]pyrimidin-7-yl}-urea], the inhibition at 50 µM at C-src kinase (at 50 μM) turned out to be 100%. The results for the IC50 in test [2] and in test [1] were 2.79 µM and 135 nM, respectively.

For `Cc1cc(C)c(C)c(-c2cc3cnc(NCCCN4CCN(C)CC4)nc3nc2N)c1C` [Example 120, N^2-[3-(4-Methyl-piperazin-1-yl)-propyl]-6-(2,3,5,6-tetramethyl-phenyl)-pyrido[2,3-d]pyrimidine-2,7-diamine], the IC50 at C-src kinase was determined as 42.7 µM; in test [2], 3.84 µM; in test [1], 3270 nM.
